One experiment has as its system Aβ. Conditions: after 1 day of treatment; on the order of 500 ng/g tissue; cited from earlier work.
Another experiment has as its system nt-bAP. Conditions: according to the thioflavin assay (Zhang et al.); cited from earlier work.
In experiment [1] the target is T1, biotinylated Aβ^1-40 peptide (Homo sapiens, UniProt P05067).
T1 construct: biotinylated Aβ^1-40 peptide (1.7 μg/ml) at 37° C; purchased
As to the kind of experiment: direct ELISA, plate-immobilised capture peptide probed with biotinylated Aβ peptide. Conditions: 1 μg/well capture peptide, 1 μg/ml biotinylated Aβ, 2 hours; compared to scrambled or irrelevant control peptide (FIG. 1a). In kind it is binding. As to the method:
(§1) FIG. 1a graphically illustrates binding of biotinylated Aβ^1-42 and biotinylated Aβ^1-40 peptide by RI peptide. 96-well plate was coated with the capture peptide (1 μg/well of retro-inverso [RI], scrambled [SCR] or an irrelevant control peptide), blocked with gelatin and probed with 1 μg/ml of biotinylated Aβ peptide for 2 hours and streptavidin peroxidase for 1 hour. Experiments were repeated and were calculated as Mean±SE (N=2) and expressed as pmols Aβ^1-42/ml of binding solution. Graded concentrations of biotinylated Aβ^1-42 peptide was used as a calibration standard.
(§2) Testing the binding and stability of biotinylated Aβ peptides in binding solution. The ability of the biotinylated, nt-bAP, which is represented by Aβ peptides (1-42 and 1-40) to bind the binding element, the retro inverso peptide (RI) was investigated on a direct ELISA as described at the end of this section. RI, scrambled or an irrelevant peptide, immobilized on an ELISA plate was allowed to bind biotinylated Aβ peptides, 1-42 or 1-40.
(In general: An ELISA detects its analyte on a solid surface through an enzyme-linked reagent.)

Experiment [2] concerns the target T2, biotinylated Aβ^1-42 peptide (Homo sapiens, UniProt P05067).
T2 construct: biotinylated Aβ^1-42 peptide (1.7 μg/ml) at 37° C; purchased
Described as above. Conditions: 1 μg/well capture peptide, 1 μg/ml biotinylated Aβ, 2 hours; compared to scrambled or irrelevant control peptide (FIG. 1a). Format: binding. How it is done: as §1, §2

Square brackets hold non-standard residues; d marks the D form. Ends that are not written are not given here.

Aβ, sequence (P05067 672-711 limits assumed): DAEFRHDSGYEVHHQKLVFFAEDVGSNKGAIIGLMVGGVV
nt-bAP, sequence (P05067 672-711 limits assumed): as above
T1 sequence (P05067 672-711): as the sequence (P05067 672-711 limits assumed) above
T2 sequence (P05067 672-713): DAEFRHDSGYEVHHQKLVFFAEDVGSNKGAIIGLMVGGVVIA

Turning to GM1, in the experiment with Aβ, the “levels of Aβ in brain” value is recorded as “reduced in half”.

With gelsolin, the “levels of Aβ in brain” value with Aβ is listed as “reduced in half”. Regarding phe-phe-val-leu-lys [ffvlk], the “toxicity of aggregates of binding element with nt-bAP” value with nt-bAP is reported as “less toxic than nt-bAP itself”. On to “phe-phe-val-leu-lys-Cys ([dF][dF][dV][dL][dK][dC]-NH2; not fully specified; printed as phe-phe-val-leu-lys-Cys) [RI peptide]”, for which the “binding of biotinylated Aβ^1-40 by capture peptide” value in experiment [1] was “significant and specific binding”. In addition, the “binding of biotinylated Aβ^1-42 by capture peptide” value in experiment [2] is “significant and specific binding”.

These data come from US20060069010A1, “Detoxification depot for Alzheimer's disease” (Senicure LLC, priority 2003, published 2006).
